Experimental data from US20150141381A1, “TETRACYCLINE COMPOUNDS HAVING TARGET THERAPEUTIC ACTIVITIES” (Paratek Pharmaceuticals, Inc., priority 2001, published 2015).
Like-named read-outs stand apart in the source and are kept apart here.

Tests used:
[1] = test system: S. aureus RN450; assay: In Vitro Anti-Bacterial Activity Assay (MIC), gram positive; format: cell-based; details: Staphylococcus aureus, RN450, 18 h
[2] = test system: E. coli mL308 225; assay: In Vitro Anti-Bacterial Activity Assay (MIC), gram negative; format: cell-based; details: Escherichia coli, ML308225, 18 h
[3] = gram positive bacteria, read-out: Antibiotic Activity Gram + (MIC)
[4] = gram negative bacteria, read-out: Antibiotic Activity Gram − (MIC)
[5] = MIC class, Table 3, read-out: Antibiotic Activity Gram +
[6] = MIC class, Table 3, read-out: Antibiotic Activity Gram −
[7] = MIC class, Table 3 (Continued), read-out: Gram+ activity
[8] = MIC class, Table 3 (Continued), read-out: Gram− activity

Structure (SMILES): CN(C)c1cc(C#CC(=O)O)c(O)c2c1C[C@H]1C[C@H]3[C@H](N(C)C)C(O)=C(C(N)=O)C(=O)[C@@]3(O)C(O)=C1C2=O
- MIC [1, 3]: > 4 µg/mL
- MIC [2, 4]: > 4 µg/mL

Structure (SMILES): CN(C)c1cc(C#CC2(O)CCCCC2)c(O)c2c1C[C@H]1C[C@H]3[C@H](N(C)C)C(O)=C(C(N)=O)C(=O)[C@@]3(O)C(O)=C1C2=O [AN]
- MIC [1, 5]: > 4 µg/mL
- MIC [2, 6]: > 4 µg/mL

Structure (SMILES): CC(=O)c1ccc(-c2cc(N(C)C)c3c(c2O)C(=O)C2=C(O)[C@]4(O)C(=O)C(C(N)=O)=C(O)[C@@H](N(C)C)[C@@H]4C[C@@H]2C3)cc1
- MIC [1, 3]: < 4 µg/mL
- MIC [2, 4]: > 4 µg/mL

Structure (SMILES): C[C@H]1c2cccc(O)c2C(=O)C2=C(O)[C@]3(O)C(=O)C(C(N)=O)=C(O)[C@@H](N(C)C)[C@@H]3[C@@H](O)[C@@H]21 [A]
- MIC [1, 5]: < 4 µg/mL
- MIC [2, 6]: < 4 µg/mL

Structure (SMILES): CN(C)[C@@H]1C(O)=C(C(N)=O)C(=O)[C@@]2(O)C(O)=C3C(=O)c4c(O)ccc(Cl)c4C[C@H]3C[C@@H]12
- MIC [1, 3]: < 4 µg/mL
- MIC [2, 4]: < 4 µg/mL

Structure (SMILES): Cc1cc(CNCc2cc(N(C)C)c3c(c2O)C(=O)C2=C(O)[C@]4(O)C(=O)C(C(N)=O)=C(O)[C@@H](N(C)C)[C@@H]4C[C@@H]2C3)c(C(F)(F)F)o1
- MIC [1, 3]: < 4 µg/mL
- MIC [2, 4]: < 4 µg/mL

Structure (SMILES): CN1CCN(Cc2ccc(-c3ccc(O)c4c3C[C@H]3C[C@H]5[C@@H](N(C)C)C(O)=C(C(N)=O)C(=O)[C@@]5(O)C(O)=C3C4=O)o2)CC1 [LN]
- MIC [1, 5]: < 4 µg/mL
- MIC [2, 6]: < 4 µg/mL

Structure (SMILES): CN(C)[C@@H]1C(O)=C(C(N)=O)C(=O)[C@@]2(O)C(O)=C3C(=O)c4c(ccc(NC(=O)CCCC(=O)O)c4O)C[C@H]3C[C@@H]12 [HX]
- MIC [1, 5]: > 4 µg/mL
- MIC [2, 6]: > 4 µg/mL

Structure (SMILES): CN(C)[C@@H]1C(O)=C(C(N)=O)C(=O)[C@@]2(O)C(O)=C3C(=O)c4c(O)ccc(C#N)c4C[C@H]3C[C@@H]12
- MIC [1, 3]: < 4 µg/mL
- MIC [2, 4]: < 4 µg/mL

Structure (SMILES): COc1ccc(-c2ccc3c(c2O)C(=O)C2=C(O)[C@]4(O)C(=O)C(C(N)=O)=C(O)[C@@H](N(C)C)[C@@H]4[C@@H](O)[C@@H]2[C@H]3C)cc1CC1CCCC1
- MIC [1, 3]: > 4 µg/mL
- MIC [2, 4]: > 4 µg/mL

Structure (SMILES): Cc1ccsc1/C=C/c1ccc(O)c2c1C[C@H]1C[C@H]3[C@H](N(C)C)C(O)=C(C(N)=O)C(=O)[C@@]3(O)C(O)=C1C2=O
- MIC [1, 7]: < 4 µg/mL
- MIC [2, 8]: < 4 µg/mL

Structure (SMILES): CCCCc1ccc(-c2cc(N(C)C)c3c(c2O)C(=O)C2=C(O)[C@]4(O)C(=O)C(C(N)=O)=C(O)[C@@H](N(C)C)[C@@H]4C[C@@H]2C3)cc1 [EI]
- MIC [1, 5]: > 4 µg/mL
- MIC [2, 6]: > 4 µg/mL

Structure (SMILES): COc1ccc(Cl)cc1-c1ccc(O)c2c1C[C@H]1C[C@H]3[C@H](N(C)C)C(O)=C(C(N)=O)C(=O)[C@@]3(O)C(O)=C1C2=O
- MIC [1, 7]: < 4 µg/mL
- MIC [2, 8]: < 4 µg/mL

Structure (SMILES): CN(C)[C@@H]1C(O)=C(C(N)=O)C(=O)[C@@]2(O)C(O)=C3C(=O)c4c(O)ccc(C#CCO)c4C[C@H]3C[C@@H]12
- MIC [1, 3]: < 4 µg/mL
- MIC [2, 4]: > 4 µg/mL

Structure (SMILES): CCOC(=O)/C=C/c1ccc2c(c1O)C(=O)C1=C(O)[C@]3(O)C(=O)C(C(N)=O)=C(O)[C@@H](N(C)C)[C@@H]3[C@@H](O)[C@@H]1C2C (stereo partly shown)
- MIC [1, 7]: < 4 µg/mL
- MIC [2, 8]: < 4 µg/mL

Structure (SMILES): CN(C)C1C(O)=C(C(N)=O)C(=O)[C@@]2(O)C(O)=C3C(=O)c4c(O)ccc(-c5ccc(CN6CCCC6)cc5)c4C[C@H]3C[C@@H]12 (stereo partly shown) [BT]
- MIC [1, 5]: < 4 µg/mL
- MIC [2, 6]: < 4 µg/mL

Structure (SMILES): CN(C)c1cc(CN2CCCC2C(F)(F)F)c(O)c2c1C[C@H]1C[C@H]3[C@H](N(C)C)C(O)=C(C(N)=O)C(=O)[C@@]3(O)C(O)=C1C2=O (stereo partly shown)
- MIC [1, 3]: < 4 µg/mL
- MIC [2, 4]: < 4 µg/mL

Structure (SMILES): CC1c2cccc(O)c2C(=O)C2=C(O)[C@]3(O)C(=O)C(C(N)=O)=C(O)[C@@H](N(C)C)[C@@H]3[C@@H](OC(=O)C3CCC3)[C@@H]21 (stereo partly shown)
- MIC [1, 7]: < 4 µg/mL
- MIC [2, 8]: < 4 µg/mL

Structure (SMILES): CN(C)[C@@H]1C(O)=C(C(N)=O)C(=O)[C@@]2(O)C(O)=C3C(=O)c4c(O)ccc(-c5ccc(CO)cc5)c4C[C@H]3C[C@@H]12
- MIC [1, 3]: < 4 µg/mL
- MIC [2, 4]: < 4 µg/mL

Structure (SMILES): COc1cccc(C#Cc2cc(N(C)C)c3c(c2O)C(=O)C2=C(O)[C@]4(O)C(=O)C(C(N)=O)=C(O)[C@@H](N(C)C)[C@@H]4C[C@@H]2C3)c1
- MIC [1, 3]: < 4 µg/mL
- MIC [2, 4]: < 4 µg/mL

Structure (SMILES): CN(C)c1cc(C(=O)N2CCOCC2)c(O)c2c1C[C@H]1C[C@H]3[C@H](N(C)C)C(O)=C(C(N)=O)C(=O)[C@@]3(O)C(O)=C1C2=O
- MIC [1, 3]: > 4 µg/mL
- MIC [2, 4]: > 4 µg/mL

Structure (SMILES): CN(C)c1cc(Cn2ccc(C=O)c2)c(O)c2c1C[C@H]1C[C@H]3[C@H](N(C)C)C(O)=C(C(N)=O)C(=O)[C@@]3(O)C(O)=C1C2=O
- MIC [1, 3]: < 4 µg/mL
- MIC [2, 4]: > 4 µg/mL

Structure (SMILES): CN(C)[C@@H]1C(O)=C(C(N)=O)C(=O)[C@@]2(O)C(O)=C3C(=O)c4c(O)cccc4[C@@](C)(O)[C@H]3C[C@@H]12 [D]
- MIC [1, 5]: < 4 µg/mL
- MIC [2, 6]: < 4 µg/mL
